Assay type in all cases: cell-based
For data set [1], the system named is human red blood cells (hRBC). Description: Hemolysis of human red blood cells. The settings on record: red cells of human, 1 h, 100 μg/mL. In short, it runs like this:
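hRBC washed 3× PBS; 20% v/v, ~0.9×10^9 cells/mL final. Peptide 100 μg/mL, 1 h, 37° C., 300 rpm. Spin, supernatant diluted 8×, OD540. 0% = PBS + 0.001% acetic acid; 100% = 2.5% Triton X-100. % hemolysis = OD540 peptide/OD540 full lysis × 100.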

The test system of data set [2] is Acinetobacter baumannii DSM 30008. The settings on record: DSM 30008. In short, it runs like this: (§1)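 Peptide stocks (1 mg/mL, water) were diluted two-fold into MH-II broth with 0.002% P-80 and mixed with approx. 10^6 CFU/mL bacteria. Plates were read visually after 18-20 hours at 35° C, with MIC expressed in μg/mL per CLSI.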
Data set [3] deals with Pseudomonas aeruginosa ATCC 27853. The following applies: ATCC 27853. In short, it runs like this:
as §1

Data set [4] relates to Escherichia coli ATCC 25922. The settings on record: ATCC 25922. A digest of the protocol:
as §1

A further data set relates to Escherichia coli 926415. The following applies: 926415.
Data set [5] concerns Klebsiella pneumoniae 968733. The settings on record: 968733.
Data set [6] deals with Acinetobacter baumannii 872842. The following applies: 872842.
Data set [7] deals with Klebsiella pneumoniae SSI #3010. The following applies: SSI #3010. A digest of the protocol: as §1

These results are taken from patent publication US10829520B2, “Beta-hairpin peptidomimetics” (POLYPHOR AG, priority 2015, dated 2020).

Where a SMILES comes first, the peptide text is derived from it. Bridges are numbered along the chain shown (N, C = ends). [ ]: non-standard residue; d: D form. Tle = CC(C)(C)[C@H](N)C(=O)O; Dab = NCC[C@H](N)C(=O)O; Dap = NC[C@H](N)C(=O)O; Sar = CNCC(=O)O

For the molecule `CC(C)C[C@@H]1NC(=O)[C@@H](CC(C)C)NC(=O)[C@H](CCN)NC(=O)[C@@H](NC(=O)[C@H](CCN)NC(=O)[C@@H](NC(=O)[C@H](CCN)NC(=O)CN(C)C(=O)[C@@H]2CSSC[C@H](NC(=O)[C@@H](N)CC(C)C)C(=O)N[C@@H](C(C)C)C(=O)N[C@@H](CO)C(=O)N[C@@H](CO)C(=O)N3CCC[C@@H]3C(=O)N3CCC[C@H]3C(=O)N[C@@H](CC(C)C)C(=O)N[C@@H](CN)C(=O)N[C@@H](Cc3ccc(O)cc3)C(=O)N2)[C@@H](C)O)CCNC(=O)[C@H]([C@@H](C)O)NC(=O)[C@H](CCN)NC(=O)[C@H](CCN)NC1=O` [Ex. 159] (H-LCVSS[dP]PL[Dap]YC[Sar][Dab]T[Dab][Dab][Dab][dL]L[Dab][Dab]T; disulfide 2-11; lactam 16-C), the “Hemolysis at 100 μg/mL” value in data set [1] is recorded as less than 1%. Besides, in data set [2], the “Acinetobacter baumannii DSM 30008 MIC” value was determined as 0.5 µg/mL. Also, the “Pseudomonas aeruginosa ATCC 27853 MIC” value in data set [3] worked out at 2 µg/mL. Also, the “Escherichia coli ATCC 25922 MIC” value in data set [4] is 0.5 µg/mL. In the data set on Escherichia coli 926415, the “Escherichia coli 926415 MIC” value was 2 µg/mL. Moreover, the “Klebsiella pneumoniae 968733 MIC” value in data set [5] was determined as 8 µg/mL. Moreover, the “Acinetobacter baumannii 872842 MIC” value in data set [6] came out at 0.25 µg/mL. Moreover, the “Klebsiella pneumoniae SSI #3010 MIC” value in data set [7] amounted to 1 µg/mL.

For `CC(=O)N[C@@H](Cc1c[nH]c2ccccc12)C(=O)N[C@@H](CCN)C(=O)N[C@H](C(=O)N[C@H]1CSSC[C@@H](C(=O)N[C@@H](Cc2ccc(O)cc2)C(=O)N[C@@H](CCN)C(=O)N[C@@H](CN)C(=O)N[C@@H](CCN)C(=O)N[C@@H](CCN)C(=O)N[C@@H](CCN)C(=O)N[C@H]2CCNC(=O)[C@H]([C@@H](C)O)NC(=O)[C@H](CCN)NC(=O)[C@H](CCN)NC(=O)[C@H](CC(C)C)NC(=O)[C@@H](Cc3ccccc3)NC(=O)[C@H](CCN)NC2=O)NC(=O)[C@H](C(C)C)NC(=O)[C@@H]2CCCN2C(=O)[C@@H](Cc2ccc(O)cc2)NC(=O)[C@H]([C@@H](C)O)NC1=O)C(C)(C)C` [Ex. 160] (Ac-W[Dab][Tle]CT[dY]PVCY[Dab][Dap][Dab][Dab][Dab][Dab][Dab][dF]L[Dab][Dab]T; disulfide 4-9; lactam 16-C), in data set [1], the “Hemolysis at 100 μg/mL” value is reported as less than 1%. In data set [2], the “Acinetobacter baumannii DSM 30008 MIC” value amounted to 0.5 µg/mL. In addition, the “Pseudomonas aeruginosa ATCC 27853 MIC” value in data set [3] is 0.25 µg/mL. Further, the “Escherichia coli ATCC 25922 MIC” value in data set [4] turned out to be 0.5 µg/mL. Besides, the “Escherichia coli 926415 MIC” value with Escherichia coli 926415 was 2 µg/mL. For the same molecule, the “Klebsiella pneumoniae 968733 MIC” value in data set [5] was determined as 4 µg/mL. Further, the “Acinetobacter baumannii 872842 MIC” value in data set [6] amounted to 1 µg/mL. For the same molecule, the “Klebsiella pneumoniae SSI #3010 MIC” value in data set [7] amounted to 1 µg/mL.

`CC(C)C[C@@H]1NC(=O)[C@@H](CC(C)C)NC(=O)[C@H](CCN)NC(=O)[C@@H](NC(=O)[C@H](CCN)NC(=O)[C@@H](NC(=O)[C@H](CCN)NC(=O)CN(C)C(=O)[C@H](CCN)NC(=O)[C@H](Cc2ccc(O)cc2)NC(=O)[C@@H]2CSSC[C@H](NC(=O)[C@@H](NC(=O)[C@H](CCN)NC(=O)[C@@H](N)Cc3c[nH]c4ccccc34)C(C)(C)C)C(=O)N[C@@H](CO)C(=O)N3CCC[C@@H]3C(=O)N3CCC[C@H]3C(=O)N[C@@H](CC(C)C)C(=O)N2)[C@@H](C)O)CCNC(=O)[C@H]([C@@H](C)O)NC(=O)[C@H](CCN)NC(=O)[C@H](CCN)NC1=O` [Ex. 161] (H-W[Dab][Tle]CS[dP]PLCY[Dab][Sar][Dab]T[Dab][Dab][Dab][dL]L[Dab][Dab]T; disulfide 4-9; lactam 16-C): in data set [1], the “Hemolysis at 100 μg/mL” value is less than 1%. Moreover, the “Acinetobacter baumannii DSM 30008 MIC” value in data set [2] turned out to be 0.25 µg/mL. The “Pseudomonas aeruginosa ATCC 27853 MIC” value in data set [3] amounted to 0.5 µg/mL. In addition, in data set [4], the “Escherichia coli ATCC 25922 MIC” value is 0.0625 µg/mL. Moreover, in the data set on Escherichia coli 926415, the “Escherichia coli 926415 MIC” value is 0.25 µg/mL. Besides, the “Klebsiella pneumoniae 968733 MIC” value in data set [5] is 2 µg/mL. Moreover, the “Acinetobacter baumannii 872842 MIC” value in data set [6] was 0.5 µg/mL. Besides, the “Klebsiella pneumoniae SSI #3010 MIC” value in data set [7] was found to be 0.125 µg/mL.
